Data published in ChEMBL document CHEMBL4715763, “A simple, one pot synthesis of furo[3,2-c]chromenes and evaluation of antimicrobial activity” (2016).
In brackets after ≈: the same amount, converted by molar mass. Activity calls are given as the source filed them. The calls are words filed in the database; no cut-off is given here.

What was measured:
Format in all cases: functional
Escherichia coli [1] = assay: Antimicrobial activity against Escherichia coli MTCC 739 assessed as inhibition zone measured after 24 hrs incubation by well diffusion method
Raoultella planticola [2] = assay: Antimicrobial activity against Klebsiella planticola MTCC 530 assessed as inhibition zone measured after 24 hrs incubation by well diffusion method
Pseudomonas aeruginosa = assay: Antimicrobial activity against Pseudomonas aeruginosa MTCC 2453 assessed as inhibition zone measured after 24 hrs incubation by well diffusion method
Candida albicans = assay: Antimicrobial activity against Candida albicans MTCC 3017 assessed as inhibition zone measured after 24 hrs incubation by well diffusion method
Micrococcus luteus [3] = assay: Antimicrobial activity against Micrococcus luteus MTCC 2470 assessed as inhibition zone measured after 24 hrs incubation by well diffusion method
Staphylococcus aureus [4] = assay: Antimicrobial activity against Staphylococcus aureus MLS-16 MTCC 2940 assessed as inhibition zone measured after 24 hrs incubation by well diffusion method
Staphylococcus aureus [5] = assay: Antimicrobial activity against Staphylococcus aureus MTCC 96 assessed as inhibition zone measured after 24 hrs incubation by well diffusion method
Bacillus subtilis [6] = assay: Antimicrobial activity against Bacillus subtilis MTCC 121 assessed as inhibition zone measured after 24 hrs incubation by well diffusion method
Escherichia coli [7] = assay: Bactericidal activity against Escherichia coli MTCC 739 assessed as bacterial killing after 24 hrs incubation by NCCLS protocol-based broth microdilution method
Raoultella planticola [8] = assay: Bactericidal activity against Klebsiella planticola MTCC 530 assessed as bacterial killing after 24 hrs incubation by NCCLS protocol-based broth microdilution method
Micrococcus luteus [9] = assay: Bactericidal activity against Micrococcus luteus MTCC 2470 assessed as bacterial killing after 24 hrs incubation by NCCLS protocol-based broth microdilution method
Bacillus subtilis [10] = assay: Bactericidal activity against Bacillus subtilis MTCC 121 assessed as bacterial killing after 24 hrs incubation by NCCLS protocol-based broth microdilution method

SMILES	MIC (Escherichia coli [1])	MIC (Raoultella planticola [2])	MIC (Pseudomonas aeruginosa)	MIC (Candida albicans) [µg/mL]	MIC (Micrococcus luteus [3])	MIC (Staphylococcus aureus [4])	MIC (Staphylococcus aureus [5])	MIC (Bacillus subtilis [6])	MBC (Escherichia coli [7])	MBC (Raoultella planticola [8]) [µg/mL]	MBC (Micrococcus luteus [9]) [µg/mL]	MBC (Bacillus subtilis [10])
Clc1ccc(COC(Cn2ccnc2)c2ccc(Cl)cc2Cl)c(Cl)c1 (stereo unspecified) [MICONAZOLE]	inactive	inactive	inactive	7.8 (≈ 18.7 µM)	inactive	inactive	inactive	inactive	–	–	–	–
CCOC(=O)C1(C#N)Oc2c(c(=O)oc3ccccc23)C1c1ccc(C(F)(F)F)cc1 (stereo unspecified)	> 250 µg/mL	250 µg/mL (≈ 582 µM)	> 250 µg/mL	> 250	> 250 µg/mL	> 250 µg/mL	> 250 µg/mL	250 µg/mL (≈ 582 µM)	–	–	–	–
CCOC(=O)C1(C#N)Oc2c(c(=O)oc3ccccc23)C1c1ccccc1 (stereo unspecified)	> 250 µg/mL	> 250 µg/mL	> 250 µg/mL	> 250	> 250 µg/mL	> 250 µg/mL	> 250 µg/mL	> 250 µg/mL	–	–	–	–
COC(=O)C1(C#N)Oc2c(c(=O)oc3ccccc23)C1c1cc(OC)c(OC)c(OC)c1 (stereo unspecified)	> 250 µg/mL	> 250 µg/mL	> 250 µg/mL	> 250	> 250 µg/mL	> 250 µg/mL	62.5 µg/mL (≈ 143 µM)	> 250 µg/mL	–	–	–	–
COC(=O)C1(C#N)Oc2c(c(=O)oc3ccccc23)C1c1ccc(C(F)(F)F)cc1 (stereo unspecified)	> 250 µg/mL	> 250 µg/mL	> 250 µg/mL	> 250	> 250 µg/mL	> 250 µg/mL	> 250 µg/mL	> 250 µg/mL	–	–	–	–
CCOC(=O)C1(C#N)Oc2c(c(=O)oc3ccccc23)C1c1ccc([N+](=O)[O-])cc1 (stereo unspecified)	> 250 µg/mL	> 250 µg/mL	> 250 µg/mL	> 250	> 250 µg/mL	> 250 µg/mL	> 250 µg/mL	> 250 µg/mL	–	–	–	–
COC(=O)C1(C#N)Oc2c(c(=O)oc3ccc(C)cc23)C1c1ccccc1 (stereo unspecified)	> 250 µg/mL	> 250 µg/mL	> 250 µg/mL	> 250	> 250 µg/mL	> 250 µg/mL	> 250 µg/mL	> 250 µg/mL	–	–	–	–
O=C(O)c1cn(C2CC2)c2cc(N3CCNCC3)c(F)cc2c1=O [CIPROFLOXACIN]	0.9 µg/mL (≈ 2.72 µM)	0.9 µg/mL (≈ 2.72 µM)	0.9 µg/mL (≈ 2.72 µM)	–	0.9 µg/mL (≈ 2.72 µM)	0.9 µg/mL (≈ 2.72 µM)	0.9 µg/mL (≈ 2.72 µM)	0.9 µg/mL (≈ 2.72 µM)	1.17 µg/mL (≈ 3.53 µM)	1.17 (≈ 3.53 µM)	1.17 (≈ 3.53 µM)	1.17 µg/mL (≈ 3.53 µM)
COC(=O)C1(C#N)Oc2c(c(=O)oc3ccccc23)C1c1ccc(F)cc1 (stereo unspecified)	15.6 µg/mL (≈ 42.7 µM)	7.8 µg/mL (≈ 21.4 µM)	> 250 µg/mL	62.5 (≈ 171 µM)	7.8 µg/mL (≈ 21.4 µM)	62.5 µg/mL (≈ 171 µM)	62.5 µg/mL (≈ 171 µM)	7.8 µg/mL (≈ 21.4 µM)	62.5 µg/mL (≈ 171 µM)	62.5 (≈ 171 µM)	62.5 (≈ 171 µM)	62.5 µg/mL (≈ 171 µM)
COC(=O)C1(C#N)Oc2c(c(=O)oc3ccccc23)C1c1ccc(C)cc1 (stereo unspecified)	> 250 µg/mL	> 250 µg/mL	> 250 µg/mL	> 250	125 µg/mL (≈ 346 µM)	> 250 µg/mL	> 250 µg/mL	> 250 µg/mL	–	–	–	–
CC(C)OC(=O)C1(C#N)Oc2c(c(=O)oc3ccccc23)C1c1ccccc1 (stereo unspecified)	> 250 µg/mL	15.6 µg/mL (≈ 41.6 µM)	> 250 µg/mL	> 250	15.6 µg/mL (≈ 41.6 µM)	125 µg/mL (≈ 333 µM)	125 µg/mL (≈ 333 µM)	250 µg/mL (≈ 666 µM)	inactive	62.5 (≈ 166 µM)	62.5 (≈ 166 µM)	inactive
COC(=O)C1(C#N)Oc2c(c(=O)oc3ccccc23)C1c1ccc(Cl)cc1Cl (stereo unspecified)	> 250 µg/mL	> 250 µg/mL	> 250 µg/mL	> 250	> 250 µg/mL	> 250 µg/mL	> 250 µg/mL	> 250 µg/mL	–	–	–	–
CCOC(=O)C1(C#N)Oc2c(c(=O)oc3ccc(C)cc23)C1c1ccccc1 (stereo unspecified)	> 250 µg/mL	250 µg/mL (≈ 666 µM)	> 250 µg/mL	> 250	> 250 µg/mL	> 250 µg/mL	> 250 µg/mL	> 250 µg/mL	–	–	–	–
COC(=O)C1(C#N)Oc2c(c(=O)oc3ccccc23)C1c1ccc([N+](=O)[O-])cc1 (stereo unspecified)	> 250 µg/mL	> 250 µg/mL	> 250 µg/mL	> 250	> 250 µg/mL	> 250 µg/mL	> 250 µg/mL	> 250 µg/mL	–	–	–	–
COC(=O)C1(C#N)Oc2c(c(=O)oc3ccccc23)C1c1ccc(Cl)cc1 (stereo unspecified)	62.5 µg/mL (≈ 164 µM)	> 250 µg/mL	> 250 µg/mL	> 250	> 250 µg/mL	> 250 µg/mL	> 250 µg/mL	> 250 µg/mL	–	–	–	–
COC(=O)C1(C#N)Oc2c(c(=O)oc3ccccc23)C1c1ccc(C#N)cc1 (stereo unspecified)	> 250 µg/mL	> 250 µg/mL	> 250 µg/mL	> 250	> 250 µg/mL	> 250 µg/mL	> 250 µg/mL	> 250 µg/mL	–	–	–	–
CCOC(=O)C1(C#N)Oc2c(c(=O)oc3ccccc23)C1c1cccc2ccccc12 (stereo unspecified)	> 250 µg/mL	> 250 µg/mL	> 250 µg/mL	> 250	> 250 µg/mL	> 250 µg/mL	> 250 µg/mL	> 250 µg/mL	–	–	–	–
COC(=O)C1(C#N)Oc2c(c(=O)oc3ccccc23)C1c1ccccc1 (stereo unspecified)	> 250 µg/mL	> 250 µg/mL	> 250 µg/mL	> 250	> 250 µg/mL	> 250 µg/mL	> 250 µg/mL	62.5 µg/mL (≈ 180 µM)	–	–	–	–
COC(=O)C1(C#N)Oc2c(c(=O)oc3ccccc23)C1c1ccc(O)cc1 (stereo unspecified)	> 250 µg/mL	> 250 µg/mL	> 250 µg/mL	> 250	> 250 µg/mL	> 250 µg/mL	> 250 µg/mL	> 250 µg/mL	–	–	–	–
COC(=O)C1(C#N)Oc2c(c(=O)oc3ccccc23)C1c1ccc(Br)cc1 (stereo unspecified)	12.5 µg/mL (≈ 29.3 µM)	> 250 µg/mL	> 250 µg/mL	> 250	> 250 µg/mL	> 250 µg/mL	> 250 µg/mL	> 250 µg/mL	–	–	–	–
